Reference: patent publication US8097404B2, “Composition and method for cell permeabilization comprising N-octyl-β-D-glucopyranoside, sodium polyphosphates, rubidium chloride and/or lithium chloride for detecting living cells on a membrane” (Millipore Corporation, priority 2008, dated 2012)

System: S. aureus (Gram-positive bacterium) ATCC 6538
Assay: Fluorescence detection of microcolonies on membrane after permeabilization and 5/6-CFDA labeling
Format: cell-based
Settings: agent used alone
Procedure: The tested strains of E. coli (Gram-negative bacterium) ATCC 8739 and of S. aureus (Gram-positive bacterium) ATCC 6538 or B. subtilis (Gram-positive bacterium) ATCC 6633 were preserved in cryotubes (Dutscher, ref. 028049) frozen at −80° C. prepared from freeze-dried strains obtained from collections.
For all the tests, the bacteria strains are diluted in tubes of peptone water (Biomérieux, ref. 42111). A cascade dilution is performed by adding 1 ml of the cryotube of the strain used to 9 ml of the tube of peptone water until the desired dilution is obtained. The concentration was adjusted in order to obtain on average 30 bacteria per sample. This concentration was verified on a Petri dish by a conventional count test on agar medium. […]
A universal fluorogenic marker, namely 5/6-carboxyfluorescein diacetate (CFDA) (Sigma 21879-100MG) diluted in DMSO, is added to the permeabilization compositions in order to reach a final concentration of 100 μg/ml. […] The membrane is then removed from the labeling solution and placed in an illuminator equipped with a camera in order to measure the fluorescence emitted between 520 and 530 nm.
The fluorescence intensity results summarized in Tables 1 to 3 below correspond to the light energy (luminescence) captured and recorded to the nearest pixel by the CCD camera using the Sherlock image analyzing software (Insosys Inc.). […]

CCCCCCCCO[C@@H]1O[C@H](CO)[C@@H](O)[C@H](O)[C@H]1O [N-Octyl-β-D-glucopyranoside]
Permeabilization of Gram-positive bacteria, in words: unsuitable
